# Reference: patent publication US20260055107A1, “SERIES OF NITROGEN-CONTAINING BRIDGED HETEROCYCLIC COMPOUNDS AND PREPARATION METHOD THEREFOR” (CMS RESEARCH & DEVELOPMENT PTE. LTD., priority 2022, published 2026)
# Key:
# [1] = Plasma protein binding rate test (equilibrium dialysis), human; format: in vitro ADME; settings: 2 μM, equilibrium dialysis 37° C. 4 hours
# Description: (§1) Experimental purpose: To evaluate the protein binding rate of the compounds of the present disclosure in the plasma of CD-1 mice, SD rats, beagle dogs, cynomolgus monkeys and humans using equilibrium dialysis.
# (§2) The test compounds were diluted with dialysis buffer into the plasma of the above five species to prepare samples with a final concentration of 2 μM. The samples were then added to a 96-well equilibrium dialysis device and dialyzed using phosphate buffered saline solution at 37° C. for 4 hours. Warfarin was used as a control compound in the experiment. The concentration of the test compounds and warfarin in the plasma and buffer was determined using LC-MS/MS. The free fraction of the compound was calculated by the following formula: PPB_Unbound (%)=100*FC/TC, where FC is the concentration of the compound at the buffer end of the dialysis plate; TC is the concentration of the compound at the plasma end of the dialysis plate; To is the concentration of the compound in the plasma sample at time zero.
# [2] = Plasma protein binding rate test (equilibrium dialysis), mouse; format: in vitro ADME, CD-1 mice; settings: 2 μM, equilibrium dialysis 37° C. 4 hours, CD-1 mouse plasma
# Description: as §1, §2
# Caco-2 cells = test: In vitro Caco-2 cell permeability test; format: in vitro ADME; settings: Caco-2, 2 μM, 120 minutes; for Apparent permeability coefficient: pH 7.40, direction not given; for Efflux ratio: Papp(BA)/Papp(AB)
# Description: Cell culture was performed using MEM (minimum essential medium) supplemented with 2 mM L-glutamine, 10% fetal bovine serum (FBS), 100 U/mL penicillin-G and 100 μg/mL streptomycin. Cell culture conditions were 37±1° C., 5% CO2 and saturated humidity. When the cells reached a density of 80 to 90%, trypsin (0.05%, w/v)/EDTA (0.02%, w/v) digestion solution was added to digest the cells before seeding the plate. Cells were seeded in BD Falcon Transwell-96 well plates at a seeding density of 1×10^5 cells/cm^2. The cells were incubated in a carbon dioxide incubator for 22 days and then used for transport experiments.
# Hank's balanced salt buffer (pH 7.40±0.05) containing 10 mM HEPES was used as the transport buffer in this project. The bidirectional transport of the test compound and the positive drug digoxin was tested at a concentration of 2 μM, with two parallel samples each, and the transport of fenoterol and propranolol from the apical to the basal end (A-B) was tested. The concentration of DMSO in the incubation system was controlled to 1% or less. After loading the sample, the cell plate was incubated at 37±1° C., 5% CO2 and saturated humidity for 120 minutes. All samples were vortexed and centrifuged at 3220 rpm and 20° C. for 20 minutes. The control sample and test sample were diluted in a 1:1 (v/v) ratio with ultrapure water and stored at 4° C., and the analytical tests were performed by liquid chromatography tandem mass spectrometry (LC/MS/MS).
# In this study, the liquid chromatography tandem mass spectrometry (LC/MS/MS) method was used to semi-quantitatively analyze the peak area ratios of the test compounds and control samples fenoterol, propranolol and digoxin to the internal standard in the starting solution, receiving solution and administration well supernatant. The apparent permeability coefficient (Papp, cm/s), efflux rate and recovery rate were calculated using the following formula: • (1) Papp=(dCr/dt)×Vr/(A×C0), dCr/dt is the cumulative concentration of the compound at the receiving end per unit time (μM/s); Vr is the volume of the solution at the receiving end (0.075 mL and 0.250 mL for the solution at the apical and basal ends, respectively); A is the relative surface area of the cell monolayer (0.0804 cm^2); C0 is the starting concentration (nM) of the test sample at the administration end or the peak area ratio of the control sample. • (2) Efflux ratio=Papp(BA)/Papp(AB) • (3) Recovery rate (%)=100×[(Vr×Cr)+(Vd×Cd)]/(Vd×C0), C0 is the starting concentration (nM) of the test sample at the administration end or the peak area ratio of the control sample; Vd is the volume at the administration end (0.075 mL on the apical side and 0.250 mL on the basal side); Cd and Cr are the final concentration (nM) of the test sample or the peak area ratio of the control sample at the administration and receiving ends, respectively.
# [3] = In vitro liver microsomal stability test; format: in vitro ADME, human; settings: 1 μM compound, 0.5 mg/mL liver microsomes, NADPH
# Description: Liver microsomes: purchased from Corning or Xenotech, stored in a −80° C. refrigerator; reduced nicotinamide adenine dinucleotide phosphate (NADPH), supplier: Chem-Impex International, Cat. No.: 00616; control compounds: testosterone, diclofenac, propafenone.
# Stock solution: 10 mM DMSO solution; preparation of working concentration: The stock solution was diluted to 100 μM using 100% acetonitrile (organic phase content: 99% acetonitrile, 1% DMSO).
# Two 96-well incubation plates were prepared and named as T60 incubation plate and NCF60 incubation plate.
# 445 μL of microsomal working solution (liver microsomal protein concentration of 0.56 mg/mL) was added to both the T60 incubation plate and the NCF60 incubation plate. The two incubation plates were pre-incubated in a 37° C. water bath for approximately 10 minutes.
# After pre-incubation was completed, 5 μL of the test compound or control compound working solution was added to both the T60 incubation plate and the NCF60 incubation plate and mixed well. 50 μL of potassium phosphate buffer per well was added to the NCF60 incubation plate to initiate the reaction. 180 μL of termination solution (acetonitrile solution containing 200 ng/mL tolbutamide and 200 ng/mL labetalol) and 6 μL of NADPH regeneration system working solution were added to a TO termination plate. […]
# [4] = Plasma protein binding rate test (equilibrium dialysis), rat; format: in vitro ADME, SD rats; settings: 2 μM, equilibrium dialysis 37° C. 4 hours, SD rat plasma
# Description: as §1, §2
# [5] = Plasma protein binding rate test (equilibrium dialysis), cynomolgus monkey; format: in vitro ADME, cynomolgus monkeys; settings: 2 μM, equilibrium dialysis 37° C. 4 hours
# Description: as §1, §2
# [6] = Plasma protein binding rate test (equilibrium dialysis), dog; format: in vitro ADME, beagle dogs; settings: 2 μM, equilibrium dialysis 37° C. 4 hours, beagle dog plasma
# Description: as §1, §2
# [7] = molecular target: human complement Factor B protein (Homo sapiens (Human), UniProt P00751); test: Complement human Factor B protein binding test (SPR method); settings: Biacore 8K, 1:1 Binding Kinetics Model
# Chain of human complement Factor B protein (P00751 26-764): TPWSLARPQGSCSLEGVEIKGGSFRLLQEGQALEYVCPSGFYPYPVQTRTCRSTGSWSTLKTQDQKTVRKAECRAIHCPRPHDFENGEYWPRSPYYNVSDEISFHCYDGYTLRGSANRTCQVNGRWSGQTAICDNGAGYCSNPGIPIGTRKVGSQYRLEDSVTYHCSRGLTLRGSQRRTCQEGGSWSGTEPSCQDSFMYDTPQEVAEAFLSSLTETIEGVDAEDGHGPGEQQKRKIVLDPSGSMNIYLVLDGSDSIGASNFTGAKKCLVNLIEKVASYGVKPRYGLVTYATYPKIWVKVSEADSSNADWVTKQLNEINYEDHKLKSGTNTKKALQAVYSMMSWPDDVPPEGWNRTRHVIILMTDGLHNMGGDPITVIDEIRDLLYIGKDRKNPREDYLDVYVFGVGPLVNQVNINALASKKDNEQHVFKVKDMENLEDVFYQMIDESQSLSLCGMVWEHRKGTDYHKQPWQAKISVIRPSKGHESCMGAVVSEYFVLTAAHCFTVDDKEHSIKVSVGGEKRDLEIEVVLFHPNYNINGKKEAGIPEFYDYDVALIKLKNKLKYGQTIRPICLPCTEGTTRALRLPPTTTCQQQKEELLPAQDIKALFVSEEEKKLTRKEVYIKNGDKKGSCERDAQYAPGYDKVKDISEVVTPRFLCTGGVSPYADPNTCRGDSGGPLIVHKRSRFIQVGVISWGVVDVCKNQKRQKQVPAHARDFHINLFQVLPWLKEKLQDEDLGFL
# Description: Experimental purpose: To detect the kinetic constants and affinity of the binding between the test compounds and human complement Factor B using the SPR method.
# 1-Ethyl-3-(3-dimethylaminopropyl) carbodiimide hydrochloride (EDC) and N-hydroxysulfosuccinimide sodium salt (NHS) were mixed in a 1:1 ratio, and complement Factor B was diluted to 20 μg/mL in acetic acid solution with a pH of 5.5. Using a biomacromolecule interaction analyzer Biacore 8K, the programmed settings were set to add the EDC/NHS, the FB protein solution and the 1 M ethanolamine-hydrochloric acid solution to the detection plate. The detection plate was placed in the machine detection chamber, and the EDC/NHS mixture, the complement Factor B protein solution and the 1 M ethanolamine-hydrochloric acid solution were sequentially injected onto the surface of the CM5 chip according to the procedure for chip activation, ligand coupling and deactivation. The flow cell 1 of each channel was used as a reference channel for surface activation and deactivation only, without injection of complement Factor B protein solution. All sample stock solutions were diluted with running buffer (PBST), and all samples were serially diluted 2 times in duplicate for 6 points. The prepared sample was transferred to the detection plate according to the program settings and the detection plate was placed in the sample chamber of Biacore 8K. The detection program was run, and the samples were injected into each channel of the chip sequentially according to the program, with a binding time of 120 s, a dissociation time of 600 s and a flow rate of 30 μL/min. The data were analyzed using Biacore Insight Evaluation Software: The data were fitted using a 1:1 Binding Kinetics Model to obtain the binding rate constant (kon), dissociation rate constant (koff) and dissociation equilibrium constant (KD) for binding of each test sample to complement Factor B protein.
# [8] = Pharmacokinetic study in rats; format: in vivo, Male SD rats; settings: rat; for F: PO 10 mpk vs IV 1 mpk
# Description: Male SD rats (6 to 8 weeks old, weighing 200 to 300 g) were selected.
# Injection administration (IV) was carried out at a dose of 1 mpk and a concentration of 0.20 mg/mL with a vehicle of 20% PEG400/10% solutol/70% water. Oral administration (PO) was carried out at a dose of 10 mpk and a concentration of 1 mg/mL with a vehicle of 20% PEG400/10% solutol/70% water.
# Sample collection: 0.03 mL of blood samples were collected by puncture of the saphenous vein in experimental animals at each time point, and the actual blood collection time was recorded.
# All blood samples were added to commercial 1.5 mL EDTA-K2 anticoagulant tubes. After blood sample collection, DDV was added into the plasma matrix as a stabilizer, wherein the ratio of plasma to Dichlorvos (DDV) solution was 40:1. The DDV solution was a 40 mM DDV solution in acetonitrile/water (1:1). Within half an hour, the mixture was centrifuged at 4° C. and 3000 g for 10 minutes. The supernatant plasma was aspirated, quickly placed in dry ice and stored in a −80° C. refrigerator for LC-MS/MS analysis.
# A non-compartmental model in Phoenix WinNonlin 6.3 pharmacokinetic software was used to process the plasma concentration data. The pharmacokinetic parameters were calculated using the linear-log trapezoidal method. C0: concentration needed immediately after intravenous injection; Cmax: the highest plasma drug concentration after administration; Tmax: time needed to reach drug peak concentration after administration; T1/2: time needed for plasma drug concentration to decrease by half; Vdss: apparent volume of distribution, refers to the proportional constant between the amount of drug in the body and the plasma drug concentration when the drug reaches dynamic equilibrium in the body. Cl: clearance rate, refers to the apparent volume of distribution of the drug cleared from the body per unit time; AUC0-last: area under the drug time curve, refers to the area surrounded by the plasma drug concentration curve against the time axis; F: bioavailability.
Structure (SMILES),"Plasma protein binding (PPB) unbound, Human (H) [1] [%]","Plasma protein binding (PPB) unbound, Mouse (M) [2] [%]",Apparent permeability coefficient (Caco-2 cells),Efflux ratio (Caco-2 cells),Human liver microsomal stability CLint [3] [mL/min/kg],"Plasma protein binding (PPB) unbound, Rat (R) [4] [%]","Plasma protein binding (PPB) unbound, Cynomolgus monkey (C) [5] [%]","Plasma protein binding (PPB) unbound, Dog (D) [6] [%]",Kd [7] [nM],AUC0-last ([8]; IV 1 mpk) [µM·h],C0 ([8]; IV 1 mpk) [µM],Cl ([8]; IV 1 mpk) [mL/min/kg],T1/2 ([8]; IV 1 mpk) [h],Vdss ([8]; IV 1 mpk) [L/kg],AUC0-last ([8]; PO 10 mpk) [µM·h],Cmax ([8]; PO 10 mpk) [µM],T1/2 ([8]; PO 10 mpk) [h],Tmax ([8]; PO 10 mpk) [h],F [8] [%]
"CCSC1CC2CCC(c3ccc(C(=O)O)cc3)(C1)N2Cc1c(OC)cc(C)c2[nH]ccc12.O=CO (single isomer, unassigned) [Compound 1B]",13.3,12.5,1.19 10^−6 cm/s,26.1,<15,11.6,17.4,16.2,< 100,,,,,,,,,,
"COc1cc(C)c2[nH]ccc2c1CN1C2CCC1(c1ccc(C(=O)O)cc1)CC(SC)C2.O=CO (single isomer, unassigned) [Compound 2B]",21.7,22.2,1.56 10^−6 cm/s,15.8,,15.1,25.6,31.7,< 100,5.645,5.81,6.5,1.16,0.55,28.425,9.03,11.7,0.50,50.4
CCS[C@H]1C[C@H]2CC[C@@](c3ccc(C(=O)O)cc3)(C1)N2Cc1c(OC)cc(C)c2[nH]ccc12 [Compound 1A],,,,,,,,,< 100,,,,,,,,,,
COc1cc(C)c2[nH]ccc2c1CN1[C@@H]2CC[C@@]1(c1ccc(C(=O)O)cc1)C[C@@H](SC)C2 [Compound 2A],,,,,,,,,< 100,,,,,,,,,,

# The remaining lines, values ahead:
"Plasma protein binding (PPB) unbound, Human (H) [1] [%]","Plasma protein binding (PPB) unbound, Mouse (M) [2] [%]",Apparent permeability coefficient (Caco-2 cells),Efflux ratio (Caco-2 cells),Human liver microsomal stability CLint [3] [mL/min/kg],"Plasma protein binding (PPB) unbound, Rat (R) [4] [%]","Plasma protein binding (PPB) unbound, Cynomolgus monkey (C) [5] [%]","Plasma protein binding (PPB) unbound, Dog (D) [6] [%]",Kd [7] [nM],AUC0-last ([8]; IV 1 mpk) [µM·h],C0 ([8]; IV 1 mpk) [µM],Cl ([8]; IV 1 mpk) [mL/min/kg],T1/2 ([8]; IV 1 mpk) [h],Vdss ([8]; IV 1 mpk) [L/kg],AUC0-last ([8]; PO 10 mpk) [µM·h],Cmax ([8]; PO 10 mpk) [µM],T1/2 ([8]; PO 10 mpk) [h],Tmax ([8]; PO 10 mpk) [h],F [8] [%],Structure (SMILES)
15.2,19.1,1.21 10^−6 cm/s,22.6,<15,14.1,28.5,25.6,< 100,10.573,6.2,3.5,2.06,0.53,33.029,7.83,9.90,0.50,31.2,"COc1cc(C)c2[nH]ccc2c1CN1C2CCC1(c1ccc(C(=O)O)cc1)CC(C1CC1)C2 (single isomer, unassigned) [Compound 3B]"
,,,,,,,,< 100,,,,,,,,,,,COc1cc(C)c2[nH]ccc2c1CN1[C@@H]2CC[C@@]1(c1ccc(C(=O)O)cc1)C[C@H](C1CC1)C2 [Compound 3A]
